Experiments:
[1] = Determination of equilibrium solubility (HPLC); assay type: physicochemical; conditions: 48 h, pH 7.4
Description: An excess amount of ABZ-BA and ABZ were equilibrated in sodium phosphate buffer, pH 7.4, at 37°C for 48 h. The supernatant was separated from excess solid in solution by ultracentrifugation at 40000 rpm. Subsequently, the supernatant was diluted, and the solution concentration was determined using high-performance liquid chromatography (HPLC) (Shimadzu LC- 20AT, Kyoto, Japan). The chromatographic separation was performed with Diamonsil C18 (4.6×150 mm, 5 μm, Waters, Massachusetts, USA). ABZ-BA and ABZ were detected by ultraviolet (UV) absorbance detection at a wavelength of 240 nm. The mobile phase was methanol /water (70/30 v/v) and the flow rate was 1 mL/min. The injection volume was 20 μL.

[2] = tested on: protoscolex (PSCs); assay: Alkaline phosphatase in supernatant of PSC culture medium; assay type: cell-based, E. multilocularis; conditions: 5 days after treatment, same concentration as ABZ / ABZ-SO
[3] = tested on: protoscolex (PSCs); assay: Caspase 3 in supernatant of PSC culture medium; assay type: cell-based, E. multilocularis; conditions: 5 days after treatment
[4] = tested on: secondary hepatic alveolar echinococcosis (E. multilocularis); assay: In vivo therapeutic efficacy in an in-situ AE animal model (lesion volume); conditions: AE model rats
Description: Six-week-old […] weighing 200-250g were purchased from a market (Weitong Lihua Laboratory Animal Technology Co., Ltd, Beijing, China). The rats were injected with protoscolex (PSC) suspension (1000–2000) PSCs/mL×0.1 mL/each using the open-abdominal direct liver puncture method. The modeling quality was confirmed by Mindray’s Resona7 color Doppler ultrasound system. The lesion volume was calculated by the length (X) and width (Y) of its ultrasound transverse section and the width (Z) of its longitudinal section, X·Y·Z. Rats with relatively uniform lesion volumes were selected as model animals for further experiments (Fig 1). All animal-related experiments were approved by the Animal Care and Utilization Committee (IACUC) of Qinghai University. The animals were housed in a room with controlled temperature (25 ± 2°C) with light-cycled (12 h light/dark cycle). Food and water were provided ad libitum.
At the 16th week after establishing an experimental secondary AE in rats, we divided the model rats into three groups. The first is the control group, with six infected rats were received with CMC-Na of 0.9% saline. In the second group, rats were received with 0.2 mL of Albenda suspension. In the third group, rats were received with 0.2 mL of ABZ-BA suspension. The three groups were administered by gavage with the dosage of 25 mg/kg/d, which was calculated according to the equivalent dose convert ratio between humans and animals based on the surface body area of humans. After a 30-day, once-daily oral administration, the liver tissue lesions were obtained and weighed to evaluate the cyst inhibition rate after one month of administration.

[5] = tested on: Hep-G2 cell line; assay: Cytotoxicity in Hep-G2 cell line; assay type: cell-based, human; conditions: ABZ-BA with different carbon chain lengths (C1, C4 linker), data not shown
Source text: Since this part of data will be published in other manuscripts, it is not shown in this manuscript.

[6] = Stability in rat plasma (UHPLC-MS method validation, S4 Table); assay type: in vitro ADME
Description: A Dionex Ultimate 3000 RSLC system (Thermofisher) combined with an Accucore aQ C18 column (150 mm×2.1 mm, 2.6 μm, Thermo fisher) was used in the sample separation process. The separation speed was set at […] for all gradients. 1 μL of injection volume and a constant temperature of (25 ± 1°C were set for the column. The eluents were A, water with 0.1% formic acid (v/v) and B, methanol; the gradient program was as follows: 0–6 min, 8–40% B; 6–8 min, 40–100% B; 8–10 min, 100% B; 10–11 min, 100–8% B; 11–13 min, 8% B.
Heated electro-spray ionization (HE-SI) was paired with a Q-Orbitrap MS in the MS analysis. The flow rate of auxiliary, sheath and sweep gas was set at 35, 10, and 1 (arbitrary unit), respectively. A full MS-ddMS^2 mode was used to perform the analysis. The damping gas in the C-trap and nitrogen was used to stabilize the spraying. Temperatures of 350°C and 320°C were set and kept for the auxiliary gas heater and capillary. Under negative mode, 3.0 kV was adopted for the spray voltage, 60 V was used for the S-lens RF level, 50 ms was used for the maximum injection time, and 3.0 ^e6 was set as the automatic gain control target. Full MS-ddMS^2 scan ranged from 150.0000 to 800.0000 m/z. Precise molecular weight […] was used for qualitative analysis, the corresponding peak area was used for quantitative analysis, and MS^2 fragments were used for further qualitative analysis.
Plasma samples were thawed at room temperature, and 100 μL was added to an equal volume of mass spectrometry grade methanol, vortexed for 1 min, and centrifuged again at 13000 rpm for 5 min. 100 μL of the supernatant were added to 100 μL of 200 ng/mL mebendazole IS solution, vortexed for 1 min, and centrifuged again at 13000 rpm for 5 min. The resulting sample was injected by UHPLC-HR-ESI-MS with an injection volume of 1 μL. The pharmacokinetic study of SD rats was performed according to the standards recommended by the "Guidelines for the Care and Use of Laboratory Animals" (Animal Laboratory Resources Institute, 1995) and was approved by the Institutional Animal Care and Use Committee of Qinghai University.
Supplementary file pntd.0011031.s004.xlsx: S4 Table The stability for the determination of total alkaloid in rat plasma. (XLSX) Click here for additional data file.

[7] = background statement; cited from earlier work
[8] = after 1 month of oral administration
[9] = nominal 1.58 (ABZ-BA) / 1.57 (ABZ) ng/mL
[10] = nominal 25.25 (ABZ-BA) / 25.18 (ABZ) ng/mL
[11] = nominal 101 (ABZ-BA) / 100.78 (ABZ) ng/mL

Structure (SMILES): CCCSc1ccc2[nH]c(NC(=O)NCCCCOC(=O)CCC(C)C3CCC4C5C(O)CC6CC(O)CCC6(C)C5CC(O)C34C)nc2c1 (stereo not shown) [ABZ-BA]
- equilibrium solubility of ABZ-BA relative to ABZ in vitro [1]: 4 fold
- solubility of ABZ-BA relative to ABZ [1]: about 12 times
- ALP in supernatant of PSC culture medium vs positive control group [2]: no significant difference
- content of caspase 3 in supernatant of PSC culture medium vs positive control group [3]: significantly higher
- apoptotic effect on PSCs, dependence on concentration ([3]; 13.45-53.8 μg/mL): concentration-dependent
- lesion volume ([4]; 25 mg/kg/d by gavage, after 4 weeks of administration, n = 6, ultrasound X·Y·Z): 0.35±0.18 cm^3
- effect of ABZ-BA group relative to Albenda [4, 8]: 2.7 fold
- therapeutic effect [4, 8]: significant therapeutic effect
- cytotoxicity compared with ABZ [5]: the same cytotoxicity as ABZ

Structure (SMILES): CCCSc1ccc2nc(NC(=O)OC)[nH]c2c1 [ABZ, Albendazole]
- Measured (mean ± SD), 4℃ for 24 h [6, 9]: 1.53 ± 0.08 ng/mL
- Measured (mean ± SD), Room temperature for 24 h [6, 9]: 1.56 ± 0.13 ng/mL
- Measured (mean ± SD), Three freeze [6, 9]: 1.59 ± 0.15 ng/mL
- Measured (mean ± SD), at -80℃ for 15 days [6, 9]: 1.56 ± 0.07 ng/mL
- Measured (mean ± SD), 4℃ for 24 h [6, 10]: 25.65 ± 0.53 ng/mL
- Measured (mean ± SD), Room temperature for 24 h [6, 10]: 24.87 ± 0.34 ng/mL
- Measured (mean ± SD), Three freeze [6, 10]: 25.56 ± 0.56 ng/mL
- Measured (mean ± SD), at -80℃ for 15 days [6, 10]: 25.34 ± 1.18 ng/mL
- Measured (mean ± SD), 4℃ for 24 h [6, 11]: 104.63 ± 2.81 ng/mL
- Measured (mean ± SD), Room temperature for 24 h [6, 11]: 98.90 ± 3.53 ng/mL
- Measured (mean ± SD), Three freeze [6, 11]: 106.20 ± 1.36 ng/mL
- Measured (mean ± SD), at -80℃ for 15 days [6, 11]: 108.56 ± 1.18 ng/mL
- oral bioavailability [7]: < 5%

— article PMC9838834, “Improvement of Antialveolar echinococcosis efficacy of novel Albendazole-Bile acids Derivatives with Enhanced Oral Bioavailability” (PLOS Neglected Tropical Diseases, 2023)
